Our source for the Ki values is BindingDB's records for doi:10.1021/jm050520a (Schering-Plough Research Institute, 2006).

The assay has as its target Genome polyprotein (Hepatitis C virus genotype 1a (isolate H77), UniProt P27958). As to the kind of experiment: Continuous Spectrophotometric Assay. As to conditions: pH 6.5; 30 °C. The protocol:
Proteolytic cleavage of the ester linkage between the Nva (L-norvaline) and the chromophore (PAP) was monitored for change in absorbance at 370 nm. Initial velocities were determined using linear regression and kinetic constants were obtained by fitting the data to the Michaelis-Menten equation.

The structures appear in SMILES notation. Numbered stars: 1 amine (or outer) side, 2 acyl side, 3 side chain; on linkers, the order of the positions; unused ones are H or OH. Square brackets hold non-standard residues; d marks the D form. Peptide text beside a SMILES is read from it. * marks the point of attachment. X1 = CCCC(N[*:1])C(=O)C(=O)[*:2]; Tic = O=C(O)[C@@H]1Cc2ccccc2CN1; Chg = N[C@H](C(=O)O)C1CCCCC1; Phg = N[C@H](C(=O)O)c1ccccc1; Boc = CC(C)(C)OC(=O)*

Chain of Genome polyprotein (P27958 1027-1657 limits assumed): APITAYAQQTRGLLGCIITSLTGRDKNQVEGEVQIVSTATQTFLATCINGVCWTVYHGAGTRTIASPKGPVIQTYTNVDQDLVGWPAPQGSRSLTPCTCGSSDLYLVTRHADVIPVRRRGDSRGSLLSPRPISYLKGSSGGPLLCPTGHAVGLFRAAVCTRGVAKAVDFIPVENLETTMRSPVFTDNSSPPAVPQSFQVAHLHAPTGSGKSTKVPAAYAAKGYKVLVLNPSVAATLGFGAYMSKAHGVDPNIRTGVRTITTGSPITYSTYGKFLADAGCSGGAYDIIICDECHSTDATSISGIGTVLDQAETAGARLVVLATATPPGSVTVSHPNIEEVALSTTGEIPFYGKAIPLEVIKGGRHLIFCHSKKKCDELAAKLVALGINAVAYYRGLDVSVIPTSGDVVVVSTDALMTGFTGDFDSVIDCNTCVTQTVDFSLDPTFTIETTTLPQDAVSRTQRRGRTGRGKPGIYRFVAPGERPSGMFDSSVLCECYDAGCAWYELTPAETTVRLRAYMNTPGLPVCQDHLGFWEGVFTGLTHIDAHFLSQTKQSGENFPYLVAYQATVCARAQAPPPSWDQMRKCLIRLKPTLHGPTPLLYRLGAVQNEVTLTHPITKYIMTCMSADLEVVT

On to `CCCC(NC(=O)[C@@H]1Cc2ccccc2CN1C(=O)[C@@H](NC(=O)OC(C)(C)C)C1CCCCC1)C(=O)C(=O)NCC(=O)N[C@H](C(=O)N(C)C)c1ccccc1` (stereo partly drawn) [tert-butyl N-[(1S)-1-cyclohexyl-2-[(3S)-3-({1-[({[(S)-(dimethylcarbamoyl)(phenyl)methyl]carbamoyl}methyl)carbamoyl]-1-oxopentan-2-yl}carbamoyl)-1,2,3,4-tetrahydroisoquinolin-2-yl]-2-oxoethyl]carbamate] (Boc-[Chg][Tic][X1]G[Phg]-NMe2), for which the Ki was 1200 nM.

For orientation: Ki means the equilibrium dissociation constant of an inhibitor or competing ligand from its target. Lower therefore signals higher affinity.
